{
  "source": "patent US11051515B2",
  "about": "“3-acyl-benzamides and their use as herbicides” (Bayer Aktiengesellschaft, priority 2017, dated 2021)",
  "key": {"[1]": {"test_system": "ALOMY", "assay": "Pre-emergence action against ALOMY", "format": "in vivo, Alopecurus myosuroides", "conditions": "dosage 320 g/ha; pre-emergence; scored visually after 3 weeks vs untreated controls; 100% = plants have died, 0% = like control plants", "outline": "(§1)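 Seeds sown in sandy loam in wood-fiber pots and covered with soil. Greenhouse growth; visual damage scored after 3 weeks versus untreated controls (100% = dead, 0% = like control).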"}, "[2]": {"test_system": "AVEFA", "assay": "Pre-emergence action against AVEFA", "format": "in vivo, Avena fatua", "conditions": "dosage 320 g/ha, scored visually after 3 weeks vs untreated controls", "outline": "as §1"}, "[3]": {"test_system": "CYPES", "assay": "Pre-emergence action against CYPES", "format": "in vivo, Cyperus esculentus", "conditions": "pre-emergence, dosage 320 g/ha, scored visually after 3 weeks vs untreated controls", "outline": "as §1"}, "[4]": {"test_system": "ECHCG", "assay": "Pre-emergence action against ECHCG", "format": "in vivo, Echinochloa crus-galli", "conditions": "pre-emergence, dosage 320 g/ha, scored visually after 3 weeks vs untreated controls", "outline": "as §1"}, "[5]": {"test_system": "LOLMU", "assay": "Pre-emergence action against LOLMU", "format": "in vivo, Lolium multiflorum", "conditions": "dosage 320 g/ha, scored visually after 3 weeks vs untreated controls", "text": "Seeds of monocotyledonous and dicotyledonous weed plants and crop plants are laid out in sandy loam soil in wood-fiber pots and covered with soil. The compounds of the invention, formulated in the form of wettable powders (WP) or as emulsion concentrates (EC), are then applied to the surface of the covering soil in the form of an aqueous suspension or emulsion at a water application rate equating to […], with addition of 0.2% wetting agent. After the treatment, the pots are placed in a greenhouse and kept under good growth conditions for the trial plants. The damage to the test plants is scored visually after a test period of 3 weeks by comparison with untreated controls (herbicidal activity in percent (%): 100% activity=the plants have died, 0% activity=like control plants)."}, "[6]": {"test_system": "SETVI", "assay": "Pre-emergence action against SETVI", "format": "in vivo, Setaria viridis", "conditions": "pre-emergence, dosage 320 g/ha, scored visually after 3 weeks vs untreated controls", "outline": "as §1"}, "[7]": {"test_system": "ABUTH", "assay": "Pre-emergence action against ABUTH", "format": "in vivo, Abutilon theophrasti", "conditions": "pre-emergence, dosage 320 g/ha, scored visually after 3 weeks vs untreated controls", "outline": "as §1"}, "[8]": {"test_system": "AMARE", "assay": "Pre-emergence action against AMARE", "format": "in vivo, Amaranthus retroflexus", "conditions": "pre-emergence, dosage 320 g/ha, scored visually after 3 weeks vs untreated controls", "outline": "as §1"}, "[9]": {"test_system": "MATIN", "assay": "Pre-emergence action against MATIN", "format": "in vivo, Matricaria inodora", "conditions": "Dosage 320 g/ha, pre-emergence", "outline": "as §1"}, "[10]": {"test_system": "PHBPU", "assay": "Pre-emergence action against PHBPU", "format": "in vivo, Pharbitis purpurea", "conditions": "Dosage 320 g/ha, pre-emergence", "outline": "as §1"}, "[11]": {"test_system": "POLCO", "assay": "Pre-emergence action against POLCO", "format": "in vivo, Polygonum convolvulus", "conditions": "Dosage 320 g/ha, pre-emergence", "outline": "as §1"}, "[12]": {"test_system": "STEME", "assay": "Pre-emergence action against STEME", "format": "in vivo, Stellaria media", "conditions": "Dosage 320 g/ha, pre-emergence", "outline": "as §1"}, "[13]": {"test_system": "VIOTR", "assay": "Pre-emergence action against VIOTR", "format": "in vivo, Viola tricolor", "conditions": "Dosage 320 g/ha, pre-emergence", "outline": "as §1"}, "[14]": {"test_system": "VERPE", "assay": "Pre-emergence action against VERPE", "format": "in vivo, Veronica persica", "conditions": "Dosage 320 g/ha, pre-emergence", "outline": "as §1"}, "[15]": {"test_system": "ALOMY", "assay": "Post-emergence action against ALOMY", "format": "in vivo, Alopecurus myosuroides", "conditions": "Dosage 80 g/ha, post-emergence", "outline": "(§2)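 Weeds grown in sandy loam in greenhouse, treated at one-leaf stage (2–3 weeks after sowing) with WP or EC formulations sprayed as aqueous suspension/emulsion at 600 to […] water with 0.2% wetting agent. Visual rating after about 3 weeks versus untreated controls, as % herbicidal action (100% = plants dead, 0% = like control).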"}, "[16]": {"test_system": "AVEFA", "assay": "Post-emergence action against AVEFA", "format": "in vivo, Avena fatua", "conditions": "post-emergence, dosage 80 g/ha, visual assessment about 3 weeks after treatment vs untreated controls", "outline": "as §2"}, "[17]": {"test_system": "ECHCG", "assay": "Post-emergence action against ECHCG", "format": "in vivo, Echinochloa crus-galli", "conditions": "post-emergence, dosage 80 g/ha, visual assessment about 3 weeks after treatment vs untreated controls", "outline": "as §2"}, "[18]": {"test_system": "SETVI", "assay": "Post-emergence action against SETVI", "format": "in vivo, Setaria viridis", "conditions": "post-emergence, dosage 80 g/ha, visual assessment about 3 weeks after treatment vs untreated controls", "outline": "as §2"}, "[19]": {"test_system": "ABUTH", "assay": "Post-emergence action against ABUTH", "format": "in vivo, Abutilon theophrasti", "conditions": "post-emergence, dosage 80 g/ha, visual assessment about 3 weeks after treatment vs untreated controls", "outline": "as §2"}, "[20]": {"test_system": "AMARE", "assay": "Post-emergence action against AMARE", "format": "in vivo, Amaranthus retroflexus", "conditions": "post-emergence, dosage 80 g/ha, visual assessment about 3 weeks after treatment vs untreated controls", "outline": "as §2"}, "[21]": {"test_system": "MATIN", "assay": "Post-emergence action against MATIN", "format": "in vivo, Matricaria inodora", "conditions": "post-emergence, dosage 80 g/ha, visual assessment about 3 weeks after treatment vs untreated controls", "outline": "as §2"}, "[22]": {"test_system": "PHBPU", "assay": "Post-emergence action against PHBPU", "format": "in vivo, Pharbitis purpurea", "conditions": "post-emergence, dosage 80 g/ha", "outline": "as §2"}, "[23]": {"test_system": "POLCO", "assay": "Post-emergence action against POLCO", "format": "in vivo, Polygonum convolvulus", "conditions": "post-emergence, dosage 80 g/ha", "outline": "as §2"}, "[24]": {"test_system": "STEME", "assay": "Post-emergence action against STEME", "format": "in vivo, Stellaria media", "conditions": "post-emergence, dosage 80 g/ha", "outline": "as §2"}, "[25]": {"test_system": "VIOTR", "assay": "Post-emergence action against VIOTR", "format": "in vivo, Viola tricolor", "conditions": "post-emergence, dosage 80 g/ha", "outline": "as §2"}, "[26]": {"test_system": "VERPE", "assay": "Post-emergence action against VERPE", "format": "in vivo, Veronica persica", "conditions": "dosage 80 g/ha", "outline": "as §2"}},
  "data": [
    {"smiles": "CCn1nnnc1NC(=O)c1ccc(C(F)(F)F)c(C(=O)C2CC2)c1OC", "note": "[2-50]", "values": [
      {"measurement": "Pre-emergence action against ALOMY (herbicidal activity in percent)", "setting": "[1]", "value": 100, "unit": "%"},
      {"measurement": "Pre-emergence action against AVEFA (herbicidal activity)", "setting": "[2]", "value": 100, "unit": "%"},
      {"measurement": "Pre-emergence action against CYPES (herbicidal activity)", "setting": "[3]", "value": 100, "unit": "%"},
      {"measurement": "Pre-emergence action against ECHCG (herbicidal activity)", "setting": "[4]", "value": 100, "unit": "%"},
      {"measurement": "Pre-emergence action against LOLMU (herbicidal activity)", "setting": "[5]", "value": 100, "unit": "%"},
      {"measurement": "SETVI (Table B8, pre-emergence herbicidal activity)", "setting": "[6]", "value": 100, "unit": "%"},
      {"measurement": "Pre-emergence action against ABUTH (herbicidal activity)", "setting": "[7]", "value": 100, "unit": "%"},
      {"measurement": "Pre-emergence action against AMARE (herbicidal activity)", "setting": "[8]", "value": 100, "unit": "%"},
      {"measurement": "Pre-emergence action against MATIN", "setting": "[9]", "value": 100, "unit": "%"},
      {"measurement": "Pre-emergence action against PHBPU", "setting": "[10]", "value": 100, "unit": "%"},
      {"measurement": "Pre-emergence action against POLCO", "setting": "[11]", "value": 80, "unit": "%"},
      {"measurement": "Pre-emergence action against STEME", "setting": "[12]", "value": 100, "unit": "%"},
      {"measurement": "Pre-emergence action against VIOTR", "setting": "[13]", "value": 100, "unit": "%"},
      {"measurement": "Pre-emergence action against VERPE", "setting": "[14]", "value": 100, "unit": "%"},
      {"measurement": "Post-emergence action against ALOMY", "setting": "[15]", "value": 90, "unit": "%"},
      {"measurement": "Post-emergence action against AVEFA (herbicidal action in percent)", "setting": "[16]", "value": 90, "unit": "%"},
      {"measurement": "Post-emergence action against ECHCG (herbicidal action in percent)", "setting": "[17]", "value": 100, "unit": "%"},
      {"measurement": "Post-emergence action against SETVI (herbicidal action in percent)", "setting": "[18]", "value": 100, "unit": "%"},
      {"measurement": "Post-emergence action against ABUTH (herbicidal action in percent)", "setting": "[19]", "value": 90, "unit": "%"},
      {"measurement": "Post-emergence action against AMARE (herbicidal action in percent)", "setting": "[20]", "value": 100, "unit": "%"},
      {"measurement": "Post-emergence action against MATIN (herbicidal action in percent)", "setting": "[21]", "value": 100, "unit": "%"},
      {"measurement": "Post-emergence action against PHBPU", "setting": "[22]", "value": 100},
      {"measurement": "Post-emergence action against POLCO", "setting": "[23]", "value": 90},
      {"measurement": "Post-emergence action against STEME", "setting": "[24]", "value": 100},
      {"measurement": "Post-emergence action against VIOTR", "setting": "[25]", "value": 100},
      {"measurement": "Post-emergence action against VERPE", "setting": "[26]", "value": 90}
    ]}
  ]
}
